Reference: patent US10227344B2, “CK2 inhibitors, compositions and methods thereof” (Polaris Pharmaceuticals, Inc., priority 2016, dated 2019)

Legend:
Assay type in all cases: cell-based
Mia-Paca-2 = assay: Cancer cell panel, cell viability (resazurin): Pancreatic, Mia-Paca-2; details: Mia-Paca-2 (Pancreatic), 72 hours; labelled drug combined with Example 3
PC3 = assay: Cancer cell panel, cell viability (resazurin): Prostate, PC3; details: 72 hours, labelled drug combined with Example 3
Method: (§1) Cells were plated in 96-well plates and treated for 72 hours with a serially diluted CK2 inhibitor or anti-cancer drug or their combination. The suspension cell lines were treated right after plating, while the adherent cells were allowed to attach overnight prior to the start of the treatment.
(§2) Cell viability was determined by adding resazurin to cell cultures and measuring fluorescence with a plate reader. Relative cell viability was calculated by dividing the cell viability signal from a test sample by that of a non-treated control. […] Bliss Independence and Highest Single Agent models were used to determine if there is synergy, additivity or antagonism between the CK2 inhibitor and an anti-cancer drug.

BxPC3 = assay: Cancer cell panel, cell viability (resazurin): Pancreatic, BxPC3; details: 72 hours, labelled drug combined with Example 3
ZR-75-1 = assay: Cancer cell panel, cell viability (resazurin): Breast, ZR-75-1; details: ZR-75-1 (Breast), 72 hours; labelled drug combined with Example 3
Method: as §1, §2

BT-20 = assay: Cancer cell panel, cell viability (resazurin): Breast, BT-20; details: BT-20 (Breast), 72 hours; labelled drug combined with Example 3
Method: as §1, §2

MDA-MB-157 = assay: Cancer cell panel, cell viability (resazurin): Breast, MDA-MB-157; details: MDA-MB-157 (Breast), 72 hours; labelled drug combined with Example 3
Caki-2 = assay: Cancer cell panel, cell viability (resazurin): Renal, Caki-2; details: Caki-2 (Renal), 72 hours; labelled drug combined with Example 3
U266 = assay: Cancer cell panel, cell viability (resazurin): multiple myeloma, U266; details: 72 hours, labelled drug combined with Example 3
Colo205 = assay: Cancer cell panel, cell viability (resazurin): Colon, Colo205; details: 72 hours, labelled drug combined with Example 3
LoVo = assay: Cancer cell panel, cell viability (resazurin): Colon, LoVo; details: 72 hours, labelled drug combined with Example 3
Method: as §1, §2

Panc-1 = assay: Cancer cell panel, cell viability (resazurin): Pancreatic, Panc-1; details: Panc-1 (Pancreatic), 72 hours; labelled drug combined with Example 3
LnCap = assay: Cancer cell panel, cell viability (resazurin): Prostate, LnCap; details: 72 hours, labelled drug combined with Example 3
Method: as §1, §2

786-O = assay: Cancer cell panel, cell viability (resazurin): Renal, 786-O; details: 786-O (Renal), 72 hours; labelled drug combined with Example 3
Method: as §1, §2

Caov-3 = assay: Cancer cell panel, cell viability (resazurin): Ovarian, Caov-3; details: Caov-3 (Ovarian), 72 hours; labelled drug combined with Example 3
Method: as §1, §2

A2780 = assay: Cancer cell panel, cell viability (resazurin): Ovarian, A2780; details: 72 hours, labelled drug combined with Example 3
MDA-MB-453 = assay: Cancer cell panel, cell viability (resazurin): Breast, MDA-MB-453; details: MDA-MB-453 (Breast), 72 hours; labelled drug combined with Example 3
MOLT4 = assay: Cancer cell panel, cell viability (resazurin): Leukemia, MOLT4; details: 72 hours, labelled drug combined with Example 3
Caki-1 = assay: Cancer cell panel, cell viability (resazurin): Renal, Caki-1; details: Caki-1 (Renal), 72 hours; labelled drug combined with Example 3
ACHN = assay: Cancer cell panel, cell viability (resazurin): Renal, ACHN; details: 72 hours, labelled drug combined with Example 3
Method: as §1, §2

U87MG = assay: Cancer cell panel, cell viability (resazurin): Glioblastoma, U87MG; details: 72 hours, labelled drug combined with Example 3
Method: as §1, §2

H1975 = assay: Cancer cell panel, cell viability (resazurin): NSCLC, H1975; details: 72 hours, labelled drug combined with Example 3
Method: as §1, §2

A375 = assay: Cancer cell panel, cell viability (resazurin): Melanoma, A375; details: 72 hours, labelled drug combined with Example 3
DLD-1 = assay: Cancer cell panel, cell viability (resazurin): Colon, DLD-1; details: DLD-1 (Colon), 72 hours; labelled drug combined with Example 3
HL60 = assay: Cancer cell panel, cell viability (resazurin): Leukemia, HL60; details: 72 hours, labelled drug combined with Example 3
H2122 = assay: Cancer cell panel, cell viability (resazurin): NSCLC, H2122; details: 72 hours, labelled drug combined with Example 3
Method: as §1, §2

MeWO = assay: Cancer cell panel, cell viability (resazurin): Melanoma, MeWO; details: 72 hours, labelled drug combined with Example 3
EOL-1 = assay: Cancer cell panel, cell viability (resazurin): Leukemia, EOL-1; details: EOL-1 (Leukemia), 72 hours; labelled drug combined with Example 3
T47D = assay: Cancer cell panel, cell viability (resazurin): Breast, T47D; details: 72 hours, labelled drug combined with Example 3
H1299 = assay: Cancer cell panel, cell viability (resazurin): NSCLC, H1299; details: 72 hours, labelled drug combined with Example 3
Method: as §1, §2

Raji = assay: Cancer cell panel, cell viability (resazurin): Burkitt's Lymphoma, Raji; details: 72 hours, labelled drug combined with Example 3
SK-MEL-24 = assay: Cancer cell panel, cell viability (resazurin): Melanoma, SK-MEL-24; details: SK-MEL-24 (Melanoma), 72 hours; labelled drug combined with Example 3
H460 = assay: Cancer cell panel, cell viability (resazurin): NSCLC, H460; details: 72 hours, labelled drug combined with Example 3
Method: as §1, §2

A549 = assay: Cancer cell panel, cell viability (resazurin): NSCLC, A549; details: 72 hours, labelled drug combined with Example 3
SK-MEL-3 = assay: Cancer cell panel, cell viability (resazurin): Melanoma, SK-MEL-3; details: SK-MEL-3 (Melanoma), 72 hours; labelled drug combined with Example 3
NAMALWA = assay: Cancer cell panel, cell viability (resazurin): Burkitt's Lymphoma, NAMALWA; details: 72 hours, labelled drug combined with Example 3
Method: as §1, §2

H23 = assay: Cancer cell panel, cell viability (resazurin): NSCLC, H23; details: 72 hours, labelled drug combined with Example 3
HCT116 = assay: Cancer cell panel, cell viability (resazurin): Colon, HCT116; details: 72 hours, labelled drug combined with Example 3
SkBr-3 = assay: Cancer cell panel, cell viability (resazurin): Breast, SkBr-3; details: SkBr-3 (Breast), 72 hours; labelled drug combined with Example 3
Daudi = assay: Cancer cell panel, cell viability (resazurin): Burkitt's Lymphoma, Daudi; details: 72 hours, labelled drug combined with Example 3
Method: as §1, §2

WM-115 = assay: Cancer cell panel, cell viability (resazurin): Melanoma, WM-115; details: WM-115 (Melanoma), 72 hours; labelled drug combined with Example 3
SKOV-3 = assay: Cancer cell panel, cell viability (resazurin): Ovarian, SKOV-3; details: SKOV-3 (Ovarian), 72 hours; labelled drug combined with Example 3
MDA-MB-231 = assay: Cancer cell panel, cell viability (resazurin): Breast, MDA-MB-231; details: MDA-MB-231 (Breast), 72 hours; labelled drug combined with Example 3

N.N.[Cl][Pt][Cl] [Cisplatin, cisplatin]
synergy, additivity or antagonism of the combination of Example 3 with the anti-cancer drug (Mia-Paca-2): + (Additive relative to each agent alone (CI = 0.9-1 by Bliss Independence Model and <0.9 by Highest Single Agent Model)) | synergy, additivity or antagonism of the combination of Example 3 with the anti-cancer drug (PC3): + (Additive relative to each agent alone (CI = 0.9-1 by Bliss Independence Model and <0.9 by Highest Single Agent Model)) | synergy, additivity or antagonism of the combination of Example 3 with the anti-cancer drug (BxPC3): + (Additive relative to each agent alone (CI = 0.9-1 by Bliss Independence Model and <0.9 by Highest Single Agent Model)) | synergy, additivity or antagonism of the combination of Example 3 with the anti-cancer drug (ZR-75-1): + (Additive relative to each agent alone (CI = 0.9-1 by Bliss Independence Model and <0.9 by Highest Single Agent Model)) | synergy, additivity or antagonism of the combination of Example 3 with the anti-cancer drug (BT-20): + + (Slight synergy relative to each agent alone (CI = 0.75-0.9 by Bliss Independence Model)) | synergy, additivity or antagonism of the combination of Example 3 with the anti-cancer drug (MDA-MB-157): + + + (Synergy relative to each agent alone (CI = 0.4-0.74 by Bliss Independence Model)) | synergy, additivity or antagonism of the combination of Example 3 with the anti-cancer drug (Caki-2): + (Additive relative to each agent alone (CI = 0.9-1 by Bliss Independence Model and <0.9 by Highest Single Agent Model)) | synergy, additivity or antagonism of the combination of Example 3 with the anti-cancer drug (U266): + (Additive relative to each agent alone (CI = 0.9-1 by Bliss Independence Model and <0.9 by Highest Single Agent Model)) | synergy, additivity or antagonism of the combination of Example 3 with the anti-cancer drug (Colo205): + + (Slight synergy relative to each agent alone (CI = 0.75-0.9 by Bliss Independence Model)) | synergy, additivity or antagonism of the combination of Example 3 with the anti-cancer drug (LoVo): + + (Slight synergy relative to each agent alone (CI = 0.75-0.9 by Bliss Independence Model)) | synergy, additivity or antagonism of the combination of Example 3 with the anti-cancer drug (Panc-1): + (Additive relative to each agent alone (CI = 0.9-1 by Bliss Independence Model and <0.9 by Highest Single Agent Model)) | synergy, additivity or antagonism of the combination of Example 3 with the anti-cancer drug (LnCap): + + (Slight synergy relative to each agent alone (CI = 0.75-0.9 by Bliss Independence Model)) | synergy, additivity or antagonism of the combination of Example 3 with the anti-cancer drug (786-O): + + (Slight synergy relative to each agent alone (CI = 0.75-0.9 by Bliss Independence Model)) | synergy, additivity or antagonism of the combination of Example 3 with the anti-cancer drug (Caov-3): + (Additive relative to each agent alone (CI = 0.9-1 by Bliss Independence Model and <0.9 by Highest Single Agent Model)) | synergy, additivity or antagonism of the combination of Example 3 with the anti-cancer drug (A2780): + + + + (Strong synergy relative to each agent alone (CI < 0.4 by Bliss Independence Model)) | synergy, additivity or antagonism of the combination of Example 3 with the anti-cancer drug (MDA-MB-453): + + (Slight synergy relative to each agent alone (CI = 0.75-0.9 by Bliss Independence Model)) | synergy, additivity or antagonism of the combination of Example 3 with the anti-cancer drug (MOLT4): + + (Slight synergy relative to each agent alone (CI = 0.75-0.9 by Bliss Independence Model)) | synergy, additivity or antagonism of the combination of Example 3 with the anti-cancer drug (Caki-1): + (Additive relative to each agent alone (CI = 0.9-1 by Bliss Independence Model and <0.9 by Highest Single Agent Model)) | synergy, additivity or antagonism of the combination of Example 3 with the anti-cancer drug (ACHN): + (Additive relative to each agent alone (CI = 0.9-1 by Bliss Independence Model and <0.9 by Highest Single Agent Model)) | synergy, additivity or antagonism of the combination of Example 3 with the anti-cancer drug (U87MG): + (Additive relative to each agent alone (CI = 0.9-1 by Bliss Independence Model and <0.9 by Highest Single Agent Model)) | synergy, additivity or antagonism of the combination of Example 3 with the anti-cancer drug (H1975): + (Additive relative to each agent alone (CI = 0.9-1 by Bliss Independence Model and <0.9 by Highest Single Agent Model)) | synergy, additivity or antagonism of the combination of Example 3 with the anti-cancer drug (A375): + + (Slight synergy relative to each agent alone (CI = 0.75-0.9 by Bliss Independence Model)) | synergy, additivity or antagonism of the combination of Example 3 with the anti-cancer drug (DLD-1): + (Additive relative to each agent alone (CI = 0.9-1 by Bliss Independence Model and <0.9 by Highest Single Agent Model)) | synergy, additivity or antagonism of the combination of Example 3 with the anti-cancer drug (HL60): + (Additive relative to each agent alone (CI = 0.9-1 by Bliss Independence Model and <0.9 by Highest Single Agent Model)) | synergy, additivity or antagonism of the combination of Example 3 with the anti-cancer drug (H2122): + + (Slight synergy relative to each agent alone (CI = 0.75-0.9 by Bliss Independence Model)) | synergy, additivity or antagonism of the combination of Example 3 with the anti-cancer drug (MeWO): + (Additive relative to each agent alone (CI = 0.9-1 by Bliss Independence Model and <0.9 by Highest Single Agent Model)) | synergy, additivity or antagonism of the combination of Example 3 with the anti-cancer drug (EOL-1): + + (Slight synergy relative to each agent alone (CI = 0.75-0.9 by Bliss Independence Model)) | synergy, additivity or antagonism of the combination of Example 3 with the anti-cancer drug (T47D): + (Additive relative to each agent alone (CI = 0.9-1 by Bliss Independence Model and <0.9 by Highest Single Agent Model)) | synergy, additivity or antagonism of the combination of Example 3 with the anti-cancer drug (H1299): + (Additive relative to each agent alone (CI = 0.9-1 by Bliss Independence Model and <0.9 by Highest Single Agent Model)) | synergy, additivity or antagonism of the combination of Example 3 with the anti-cancer drug (Raji): + + (Slight synergy relative to each agent alone (CI = 0.75-0.9 by Bliss Independence Model)) | synergy, additivity or antagonism of the combination of Example 3 with the anti-cancer drug (SK-MEL-24): + + (Slight synergy relative to each agent alone (CI = 0.75-0.9 by Bliss Independence Model)) | synergy, additivity or antagonism of the combination of Example 3 with the anti-cancer drug (H460): + + (Slight synergy relative to each agent alone (CI = 0.75-0.9 by Bliss Independence Model)) | synergy, additivity or antagonism of the combination of Example 3 with the anti-cancer drug (A549): + + + + (Strong synergy relative to each agent alone (CI < 0.4 by Bliss Independence Model)) | synergy, additivity or antagonism of the combination of Example 3 with the anti-cancer drug (SK-MEL-3): + (Additive relative to each agent alone (CI = 0.9-1 by Bliss Independence Model and <0.9 by Highest Single Agent Model)) | synergy, additivity or antagonism of the combination of Example 3 with the anti-cancer drug (NAMALWA): + (Additive relative to each agent alone (CI = 0.9-1 by Bliss Independence Model and <0.9 by Highest Single Agent Model)) | synergy, additivity or antagonism of the combination of Example 3 with the anti-cancer drug (H23): + + + (Synergy relative to each agent alone (CI = 0.4-0.74 by Bliss Independence Model)) | synergy, additivity or antagonism of the combination of Example 3 with the anti-cancer drug (HCT116): + (Additive relative to each agent alone (CI = 0.9-1 by Bliss Independence Model and <0.9 by Highest Single Agent Model)) | synergy, additivity or antagonism of the combination of Example 3 with the anti-cancer drug (SkBr-3): + + (Slight synergy relative to each agent alone (CI = 0.75-0.9 by Bliss Independence Model)) | synergy, additivity or antagonism of the combination of Example 3 with the anti-cancer drug (Daudi): + (Additive relative to each agent alone (CI = 0.9-1 by Bliss Independence Model and <0.9 by Highest Single Agent Model)) | synergy, additivity or antagonism of the combination of Example 3 with the anti-cancer drug (WM-115): + + (Slight synergy relative to each agent alone (CI = 0.75-0.9 by Bliss Independence Model)) | synergy, additivity or antagonism of the combination of Example 3 with the anti-cancer drug (SKOV-3): + (Additive relative to each agent alone (CI = 0.9-1 by Bliss Independence Model and <0.9 by Highest Single Agent Model)) | synergy, additivity or antagonism of the combination of Example 3 with the anti-cancer drug (MDA-MB-231): + (Additive relative to each agent alone (CI = 0.9-1 by Bliss Independence Model and <0.9 by Highest Single Agent Model))
